Data: US20260207670A1, “STABILIZED BLOOD DERIVED COMPOSITION USING ANTIFIBRINOLYTIC AGENTS” (priority 2022, published 2026)

Columns and labels:
[1] = system: rabbit model of osteoarthritis; test: Arthrosis rabbit model: radiological, macroscopic and histological scores; format: in vivo
Experimental: Rabbits showing characteristic signs of osteoarthritis (as described in Guingamp et al., 1997; confirmed with the sacrifice of two rabbits on day 15 after induction of osteoarthritis and histology), were injected with a treatment solution as described below. The rabbits were sacrificed after 75 days and radiological observation, macroscopic observation, histological observation of the cartilage, histological observation of the synovium, histological observation of the menisci were carried out.
The rabbits were treated with either: • 1. PRP alone; or • 2. […] Physiological serum (saline solution, a placebo)
The limbs were examined radiologically by two orthogonal views (anteroposterior and medio-lateral) performed using a SAMSUNG XGO® model GU60 digital radiography system (Samsung® Electronics Co, Ltd; Korè) according to radiological constants following: Voltage: 52 kV; Intensity: 100 mA; and Load: 5 mAs. The radiographs were examined blindly by two observers. The degenerative changes are similar between the two subgroups of group control (physiological serum and TXA alone). […] This is explained by the fact that tranexamic acid prevents the destruction of the fibrin network within the joint space and allows a prolonged biological action.

SOX9 gene = test: RT-PCR of SOX9 gene expression in the rabbit osteoarthritis model; format: in vivo; conditions: p=0.36 (TXA)
Source text: (§1) The measurement of the expression of the genes responsible for the cell differentiation is found to be important in assessing the potential regenerative of the therapy tested. The process of tissue repair involves the overexpression of the genes that are involved in the form of messenger RNA (mRNA) which will be essential for synthesis of proteins necessary for wound healing and differentiation. Therefore, quantification of the mRNA of such a gene will reflect the efficiency and the intensity of tissue repair. Based on this principle, in the rabbit osteoarthritis model of Example 3, RT-PCR was carried out in order to quantify two genes that are correlated to repair and differentiation hyaline cartilage: the COL II gene coding for the synthesis of collagen II; and the SOX9 gene coding for the differentiation mechanisms chondrocyte.

COL II gene = test: RT-PCR of COL II gene expression in the rabbit osteoarthritis model; format: in vivo; conditions: p=0.12 (TXA), p=3.9*10-8 (PRP alone), p=2.1*10-6 (PRP+TXA)
Source text: as §1

PRP fibrin clot = test: Speed of PRP fibrin clot disintegration (PRP gel disc diameter)

## NC[C@H]1CC[C@H](C(=O)O)CC1 [TXA, tranexamic acid]
[1]; after 75 days, p=0.58 (TXA)
  synovial score (osteoarthritic synoviopathy) compared to placebo: no statistically significant differences
[1]; after 75 days, p=0.6 (TXA), p=0.07 (PRP alone), p=2.2*10-6 (PRP+TXA)
  meniscal histological score compared to placebo: no statistically significant differences
[1]; rabbits sacrificed after 75 days, p=0.092 (PRP alone)
  radiological score compared with physiological serum: similar
SOX9 gene
  expression of SOX9 gene (RQ) compared to placebo: No significant difference
COL II gene
  expression of COLII (RQ) compared to placebo: No significant difference
PRP fibrin clot; 20 mg/mL tranexamic acid vs 10 mg/mL (Example 1)
  effect on PRP gel disc breakdown, 20 mg/mL compared with 10 mg/mL: even more beneficial effect
PRP fibrin clot; PRP gel discs with TXA 10 or 20 mg/ml vs pure PRP gel, diameter measured weekly over 21 days, physiological conditions
  rate of PRP gel disc breakdown: significantly reduced
